pIC50: −log10 of the molar value. Counter-ions that a name gives are not always drawn. Where only a bound is given, the exact number is not on record here.

Broadly, the pIC50 is the negative decadic logarithm of the IC50, by convention in mol/L.

This test has as its target T1, SYK (Homo sapiens, UniProt P43405).
T1 construct: 2.5 nM SYK, 400 nM Biotin-Aha-Aha-KEDPDYEWPSAKK
Briefly: SYK Flash Plate Assay (enzyme assay). Type of test: biochemical. As to conditions: Syk inhibition. From the text:
The following abbreviations refer respectively to the definitions below: • aq (aqueous), h (hour), g (gram), L (liter), mg (milligram), MHz (Megahertz), min. (minute), mm (millimeter), mmol (millimole), mM (millimolar), m.p. (melting point), eq (equivalent), mL (milliliter), L (microliter), ACN (acetonitrile), AcOH (acetic acid), CDCl3 (deuterated chloroform), CD3OD (deuterated methanol), CH3CN (acetonitrile), c-hex (cyclohexane), DCC (dicyclohexyl carbodiimide), DCM (dichloromethane), DIC (diisopropyl carbodiimide), DIEA (diisopropylethyl-amine), DMF (dimethylformamide), DMSO (dimethylsulfoxide), DMSO-d6 (deuterated dimethylsulfoxide), EDC (1-(3-dimethyl-amino-propyl)-3-ethylcarbodiimide), ESI (Electro-spray ionization), EtOAc (ethyl acetate), Et2O (diethyl ether), EtOH (ethanol), HATU (dimethylamino-([1,2,3]triazolo[4,5-b]pyridin-3-yloxy)-methylene]-dimethyl-ammonium hexafluorophosphate), HPLC (High Performance Liquid Chromatography), i-PrOH (2-propanol), K2CO3 (potassium carbonate), LC (Liquid Chromatography), MeOH (methanol), MgSO4 (magnesium sulfate), MS (mass spectrometry), MTBE (Methyl tert-butyl ether), NaHCO3 (sodium bicarbonate), NaBH4 (sodium borohydride), NMM (N-methyl morpholine), NMR (Nuclear Magnetic Resonance), PyBOP (benzotriazole-1-yl-oxy-tris-pyrrolidino-phosphonium hexafluorophosphate), RT (room temperature), Rt (retention time), SPE (solid phase extraction), TBTU (2-(1-H-benzotriazole-1-yl)-1,1,3,3-tetramethyluromium tetrafluoro borate), TEA (triethylamine), TFA (trifluoroacetic acid), THF (tetrahydrofuran), TLC (Thin Layer Chromatography), UV (Ultraviolet). Description of the In Vitro Assays SYK Flash Plate Assay
The kinase assay is performed either as 384-well Flashplate assay (for e.g. Topcount measurement) or as 384-well Image-Flashplate assay (for LEADseeker measurement).
2.5 nM SYK, 400 nM Biotin-Aha-Aha-KEDPDYEWPSAKK
and 10 μM ATP (spiked with 0.3 μCi 33P-ATP/well) are incubated in a total volume of 50 μl (60 mM Hepes, 10 mM MgCl2, 1.2 mM Dithiothreitol, 0.02% Brij35, 0.1% BSA, pH 7.5) with or without test compound for 1 hours at 30° C. The reaction is stopped with 25 μl 200 mM EDTA. After 30 Min at 30° C. the liquid is removed and each well washed thrice with 100 μl 0.9% sodium chloride solution. Non-specific reaction is determined in presence of 0.1 μM Staurosporine. Radioactivity is measured with Topcount (when using Flashplates) or with LEADseeker (when using Image-Flashplates) respectively. Results (e.g. IC50-values) are calculated with program tools provided by the IT-department (e.g. Symyx Assay Explorer, Genedata Screener). In Vivo Assays CIA
On to `COc1ccc2c(-c3cncc4cnc(N[C@H]5CCCC[C@H]5N)nc34)c[nH]c2c1` (stereo in doubt) [Compound A40, (1S,2R)-N-[8-(6-Methoxy-1H-indol-3-yl)-pyrido[4,3-d]pyrimidin-2-yl]-cyclohexane-1,2-diamine], for which the pIC50 is over 7.00. In turn, `N[C@@H]1CCCC[C@@H]1Nc1ncc2cncc(-c3c[nH]c4cc(C(F)(F)F)ccc34)c2n1` (stereo in doubt) [Compound A41, (1S,2R)-N-[8-(6-Trifluoromethyl-1H-indol-3-yl)-pyrido[4,3-d]pyrimidin-2-yl]-cyclohexane-1,2-diamine] had a pIC50 of over 7.00. For the molecule `N[C@@H]1CCCC[C@@H]1Nc1ncc2cncc(-c3cc4ccc(F)cc4[nH]3)c2n1` (stereo in doubt) [Compound A42, (1S,2R)-N-[8-(6-Fluoro-1H-indol-2-yl)-pyrido[4,3-d]pyrimidin-2-yl]-cyclohexane-1,2-diamine], the pIC50 was 4.30 to 6.00.

Molecule `N[C@@H]1CCCC[C@@H]1Nc1ncc2cncc(-c3cc4n(n3)CCOC4)c2n1` (stereo in doubt) [Compound A43, (1S,2R)-N-[8-(6,7-Dihydro-4H-pyrazolo[5,1-c][1,4]oxazin-2-yl)-pyrido[4,3-d]pyrimidin-2-yl]-cyclohexane-1,2-diamine] had a pIC50 of 4.30 to 6.00. Under `N[C@@H]1CCCC[C@@H]1Nc1ncc2cncc(-c3c[nH]c4ccc(F)cc34)c2n1` (stereo in doubt) [Compound A46, (1S,2R)-N-[8-(5-Fluoro-1H-indol-3-yl)-pyrido[4,3-d]pyrimidin-2-yl]-cyclohexane-1,2-diamine] stands over 7.00; under `Cc1cccc2[nH]c(-c3cncc4cnc(N[C@H]5CCCC[C@H]5N)nc34)cc12` (stereo in doubt) [Compound A66, (1S,2R)-N-[8-(4-Methyl-1H-indol-2-yl)-pyrido[4,3-d]pyrimidin-2-yl]-cyclohexane-1,2-diamine], 4.30 to 6.00. The same measure for `Cn1cc(-c2cncc3cnc(N[C@@H]4CCCC[C@@H]4N)nc23)cn1` [Compound A2, (1R,2S)—N-[8-(1-Methyl-1H-pyrazol-4-yl)-pyrido[4,3-d]pyrimidin-2-yl]-cyclohexane-1,2-diamine hydrochloride]: 6.00 to 7.00; for `Cn1cc(-c2cnc(N)c3cnc(N4CCC(CO)CC4)nc23)cn1` [Compound A5, {1-[5-Amino-8-(1-methyl-1H-pyrazol-4-yl)-pyrido[4,3-d]pyrimidin-2-yl]-piperidin-4-yl}-methanol]: 4.30 to 6.00. The same measure for `Cn1cc(-c2cnc(N)c3cnc(NCCN)nc23)cn1` [Compound A6, N2-(2-Amino-ethyl)-8-(1-methyl-1H-pyrazol-4-yl)-pyrido[4,3-d]-pyrimidine-2,5-diamine]: 4.30 to 6.00. Molecule `Nc1ncc(-c2ccccc2)c2nc(N[C@@H]3CCCC[C@@H]3N)ncc12` [Compound A17, N2-((1R,2S)-2-Amino-cyclohexyl)-8-phenyl-pyrido[4,3-d]-pyrimidine-2,5-diamine] showed a negative logarithm of the IC50 (pIC50) of 6.00 to 7.00. In turn, `COC[C@H](N)CNc1ncc2c(N)ncc(-c3cnn(C)c3)c2n1` [Compound A20, N2-((R)-2-Amino-3-methoxy-propyl)-8-(1-methyl-1H-pyrazol-4-yl)-pyrido[4,3-d]pyrimidine-2,5-diamine] had a pIC50 of 6.00 to 7.00. The same measure for `CC(C)n1cc(-c2cncc3cnc(N[C@@H]4CCCC[C@@H]4N)nc23)cn1` [Compound A26, (1S,2R)-[8-(1-Isopropyl-1H-pyrazol-4-yl)-pyrido[4,3-d]pyrimidin-2-yl]-cyclohexane-1,2-diamine]: 4.30 to 6.00; for `CC1(C)CCOc2cc(-c3cncc4cnc(N[C@@H]5CCCC[C@@H]5N)nc34)ccc21` [Compound A29]: 4.30 to 6.00; for `COC[C@H](N)CNc1ncc2cncc(-c3cccc(C)c3)c2n1` [Compound A30, (R)-3-Methoxy-N1-(8-m-tolyl-pyrido[4,3-d]pyrimidin-2-yl)-propane-1,2-diamine]: 4.30 to 6.00.

`Cc1cccc(-c2cncc3cnc(N[C@H](CC(C)C)C(N)=O)nc23)c1` [Compound A32, (R)-4-Methyl-2-(8-m-tolyl-pyrido[4,3-d]pyrimidin-2-ylamino)-pentanoic acid amide] gave a negative-log IC50 (pIC50) of 4.30 to 6.00.

Turning to `N[C@H]1CCCC[C@H]1Nc1ncc2cncc(-c3ccc4[nH]cnc4c3)c2n1` [Compound A36], the pIC50 is 4.30 to 6.00. The same measure for `N[C@H]1CCCC[C@H]1Nc1ncc2cncc(-c3ccc4[nH]c(=O)[nH]c4c3)c2n1` [Compound A37, 5-[2-((1R,2S)-2-Amino-cyclohexylamino)-pyrido[4,3-d]pyrimidin-8-yl]-1,3-dihydro-benzimidazol-2-one]: 4.30 to 6.00. Under `N#Cc1ccc2[nH]cc(-c3cncc4cnc(N[C@@H]5CCCC[C@@H]5N)nc34)c2c1` [Compound A44, 3-[2-((1 R,2S)-2-Amino-cyclohexylamino)-pyrido[4,3-d]pyrimidin-8-yl]-1H-indole-5-carbonitrile] stands 6.00 to 7.00. The same measure for `N#Cc1ccc2c(-c3cncc4cnc(N[C@@H]5CCCC[C@@H]5N)nc34)c[nH]c2c1` [Compound A45, 3-[2-((1R,2S)-2-Amino-cyclohexylamino)-pyrido[4,3-d]pyrimidin-8-yl]-1H-indole-6-carbonitrile]: over 7.00; for `NC1CCOCC1Nc1ncc2cncc(-c3c[nH]c4cc(C(F)(F)F)ccc34)c2n1` (stereo not drawn) [Compound A49, cis-N3-[8-[6-(trifluoromethyl)-1H-indol-3-yl]pyrido[4,3-d]pyrimidin-2-yl]tetrahydropyran-3,4-diamine]: over 7.00. Turning to `COC[C@H](N)CNc1ncc2cncc(-c3c[nH]c4cc(C(F)(F)F)ccc34)c2n1` [Compound A61, (2R)-3-Methoxy-N1-[8-[6-(trifluoromethyl)-1H-indol-3-yl]pyrido[4,3-d]pyrimidin-2-yl]propane-1,2-diamine], the pIC50 was 4.30 to 6.00. The same measure for `CC(C)C[C@@H](Nc1ncc2cncc(-c3c[nH]c4cc(C(F)(F)F)ccc34)c2n1)C(N)=O` [Compound A62, (2R)-4-Methyl-2-[[8-[6-(trifluoromethyl)-1H-indol-3-yl]pyrido[4,3-d]-pyrimidin-2-yl]amino]pentanamide]: over 7.00. The same measure for `NC1CCCCC1Nc1ncc2cncc(-c3c[nH]c4c(F)cccc34)c2n1` (stereo not drawn) [Compound A63, cis-N2-[8-(7-Fluoro-1H-indol-3-yl)pyrido[4,3-d]pyrimidin-2-yl]cyclohexane-1,2-diamine]: over 7.00; for `CC(C)C[C@@H](Nc1ncc2cncc(-c3c[nH]c4cc(C#N)ccc34)c2n1)C(N)=O` [Compound A65, (R)-2-[8-(6-Cyano-1H-indol-3-yl)-pyrido[4,3-d]pyrimidin-2-yl-amino]-4-methyl-pentanoic acid amide]: over 7.00; for `COC[C@H](N)CNc1ncc2cncc(-c3c[nH]c4cc(C#N)ccc34)c2n1` [Compound A67, 3-[2-((R)-2-Amino-3-methoxy-propylamino)-pyrido[4,3-d]pyrimidin-8-yl]-1H-indole-6-carbonitrile]: 4.30 to 6.00.

In turn, `N[C@H]1COCC[C@H]1Nc1ncc2cncc(-c3c[nH]c4ccccc34)c2n1` [Compound A68, (3R,4R)-N4-[8-(1H-Indol-3-yl)-pyrido[4,3-d]pyrimidin-2-yl]-tetrahydro-pyran-3,4-diamine] showed a pIC50 of over 7.00. For the molecule `N#Cc1ccc2c(-c3cncc4cnc(N[C@@H]5CCOC[C@@H]5N)nc34)c[nH]c2c1` [Compound A69, 3[2-((3R,4R)-3-Amino-tetrahydro-pyran-4-ylamino)-pyrido[4,3-d]pyrimidin-8-yl]-1H-indole-6-carbonitrile], the pIC50 is 6.00 to 7.00. The same measure for `N#Cc1cccc2c(-c3cncc4cnc(N[C@@H]5CCCC[C@@H]5N)nc34)c[nH]c12` [Compound A72, 3-[2-((1R,2S)-2-amino-cyclohexylamino)-pyrido[4,3-d]pyrimidin-8-yl]-1H-indole-7-carbonitrile]: over 7.00; for `N[C@H]1CCCC[C@H]1Nc1ncc2cncc(-c3c[nH]c4cnccc34)c2n1` [Compound A76]: over 7.00; for `NC(=O)c1ccc2c(-c3cncc4cnc(N[C@@H]5CCCC[C@@H]5N)nc34)c[nH]c2c1` [Compound A77, 3-[2-((1R,2S)-2-amino-cyclohexylamino)-pyrido[4,3-d]pyrimidin-8-yl]-1H-indole-6-carboxylic acid amide]: over 7.00.

These data come from patent US9725462B2, “Pyridopyrimidine derivatives as protein kinase inhibitors” (Merck Patent GmbH, priority 2012, dated 2017).
